Measurements as given in patent US8933195B2, “Histone deacetylase inhibitors and synthetic method thereof and use thereof in manufacture of medicaments” (Nanjing Yoko Biomedical R & D Ltd., priority 2011, dated 2015).
pIC50: −log10 of the molar value.

Columns and labels:
HDAC1 = HDAC1 (Homo sapiens, UniProt Q13547); experiment: Measurement of biochemical activities of HDAC (fluorescently-labeled acetylated lysine substrate); settings: read-out: IC50 HDAC1
Protocol: (§1) 1. Measurement principles: the measurement of biochemical activities of compounds is determined according to the degree of the compounds inhibiting the deacylation of HDAC enzyme. After the fluorescently-labeled substrate containing acetylated lysine side chain reacts with the HDAC enzyme, the fluorogenic substrate is deacetylated. After the deacetylated fluorescently-labeled substrate is cracked by the enzyme, a fluorescent substance is released. The fluorescent substance generates emitting light of 460 nm under the excitation of light of 360 nm.
(§2) 2. Detailed steps: the substrate of HDAC is diluted to […] (the reaction concentration is […]) with a reaction buffer. HDAC enzyme is diluted to a proper concentration. The compounds to be detected in different concentrations are added. The mixture reacts for 30 min at 37. Then the developer with the same volume and twice concentration of the substrate is added into the mixture. The mixture is incubated for 15 min at room temperature. Finally, the reading is measured with a micro plate scanner. The excitation light is 360 nm, the emitting light is 460 nm, and the data is processed with Prime 4 software.

HDAC7 = biological target: T1, HDAC7 (Homo sapiens, UniProt Q8WUI4); experiment: as above
T1 sequence (Q8WUI4 1-952): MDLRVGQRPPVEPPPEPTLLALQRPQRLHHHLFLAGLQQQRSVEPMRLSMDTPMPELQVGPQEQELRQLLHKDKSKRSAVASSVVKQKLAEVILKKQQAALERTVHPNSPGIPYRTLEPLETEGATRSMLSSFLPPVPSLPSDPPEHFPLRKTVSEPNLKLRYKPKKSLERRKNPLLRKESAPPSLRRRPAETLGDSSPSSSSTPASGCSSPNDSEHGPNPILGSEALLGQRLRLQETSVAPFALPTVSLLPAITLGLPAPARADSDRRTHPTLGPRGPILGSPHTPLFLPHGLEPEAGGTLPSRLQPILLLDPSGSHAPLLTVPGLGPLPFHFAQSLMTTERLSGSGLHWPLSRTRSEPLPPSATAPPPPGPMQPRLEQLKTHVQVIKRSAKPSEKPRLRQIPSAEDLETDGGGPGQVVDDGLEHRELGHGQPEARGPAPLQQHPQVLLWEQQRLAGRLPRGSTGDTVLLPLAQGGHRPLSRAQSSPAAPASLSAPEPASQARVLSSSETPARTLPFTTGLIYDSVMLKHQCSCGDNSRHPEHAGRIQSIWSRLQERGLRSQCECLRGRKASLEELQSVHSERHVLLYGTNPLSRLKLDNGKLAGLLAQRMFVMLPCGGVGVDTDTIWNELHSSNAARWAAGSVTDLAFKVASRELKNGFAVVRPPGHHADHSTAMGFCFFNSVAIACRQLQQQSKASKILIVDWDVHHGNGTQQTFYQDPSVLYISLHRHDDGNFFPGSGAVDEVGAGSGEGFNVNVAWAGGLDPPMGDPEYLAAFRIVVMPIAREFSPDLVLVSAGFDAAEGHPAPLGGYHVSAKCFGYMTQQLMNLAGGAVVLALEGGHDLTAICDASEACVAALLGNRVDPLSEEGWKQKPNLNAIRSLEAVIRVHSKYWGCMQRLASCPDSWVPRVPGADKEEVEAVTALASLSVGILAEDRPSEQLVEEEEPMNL
Protocol: as §1, §2

[1] = test system: DU145 (human prostate cancer cells); experiment: MTT cancer cell growth inhibition; format: cell-based; settings: DU-145, 72 h
Excerpt: (§3) 1. Experimental principles: the inhibition of cancer cell growth with compounds is detected by an MTT method. The principle of the MTT method is as follows: yellow thiazolyl blue may penetrate through cell membranes and enter into cells, succinate dehydrogenase in living cell mitochondria may reduce exogenous MTT into water-insoluble ianthinus acicular Formazan crystals which deposit in the cells, the crystals can be dissolved with dimethyl sulfoxide (DMSO), the optical density of the crystals is detected with an enzyme-linked immunometric meter at the wavelength of 490 nm/570 nm, and the number of cells can be indirectly reflected.
(§4) 2. Experimental materials: the used cancer cell lines are Hela (human cervical cancer cells), MCF-7 (human breast cancer cells), BGC-823 (human gastric cancer cells), A549 (human lung cancer cells), HT1080 (human fibrosarcoma cells), A431 (human epidermal squamous cell carcinoma cells), HUVEC (human umbilical vein endothelial cells), DU145 (human prostate cancer cells), K562 (human leukemia cells), U937 (human leukemia cells), Pac-1 (human pancreatic cancer cells), and MOLT-4 (human acute lymphoblastic leukemia cells), which are cultured with a DMEM+10% FBS culture medium or a 1640+10% FBS culture medium, respectively.
(§5) Experimental groups: 190 μl cell suspension+10 μl pharmaceuticals in different concentrations (the final concentration is 10^−5-10^−10M)
(§6) Negative control group: 190 μl cell suspension+10 μl 2% DMSO (the final concentration of DMSO is 0.1%)
(§7) a) Cells are inoculated on a 96-pore plate, with 1500 cells and 190 μl for each hole, and cultured overnight in a 5% CO2 incubator at 37.
(§8) b) 10 μl of different pharmaceuticals is added into each hole the next day, with the final concentration of the pharmaceuticals of 10^−5-10^−10M and three parallel holes, and incubated for 72 h in a 5% CO2 incubator at 37.
(§9) c) 20 μl of 5 mg/mL MTT is added into each hole, and incubated for 4 h in a 5% CO2 incubator at 37.
(§10) d) Supernatant is removed. 100 μl of DMSO is added into each hole and vibrated.
(§11) e) The reading is 570 nm. The cell survival rate is calculated.

[2] = test system: Hela (human cervical cancer cells); experiment: MTT cancer cell growth inhibition; format: cell-based; settings: 72 h
Excerpt: as §3, §4, §5, §6, §7, §8, §9, §10, §11

[3] = test system: U937 (human leukemia cells); experiment: MTT cancer cell growth inhibition; format: cell-based; settings: U-937, 72 h
Excerpt: as §3, §4, §5, §6, §7, §8, §9, §10, §11

[4] = test system: HT1080 (human fibrosarcoma cells); experiment: MTT cancer cell growth inhibition; format: cell-based; settings: HT-1080, 72 h
Excerpt: as §3, §4, §5, §6, §7, §8, §9, §10, §11

[5] = test system: BGC-823 (human gastric cancer cells); experiment: MTT cancer cell growth inhibition; format: cell-based; settings: 72 h, read-out: GI50 BGC823
Excerpt: as §3, §4, §5, §6, §7, §8, §9, §10, §11

[6] = test system: A549 (human lung cancer cells); experiment: MTT cancer cell growth inhibition; format: cell-based; settings: 72 h
Excerpt: as §3, §4, §5, §6, §7, §8, §9, §10, §11

[7] = test system: MOLT-4 (human acute lymphoblastic leukemia cells); experiment: MTT cancer cell growth inhibition; format: cell-based; settings: 72 h
Excerpt: as §3, §4, §5, §6, §7, §8, §9, §10, §11

[8] = test system: MCF-7 (human breast cancer cells); experiment: MTT cancer cell growth inhibition; format: cell-based; settings: MCF7, 72 h
Excerpt: as §3, §4, §5, §6, §7, §8, §9, §10, §11

PANC-1 = experiment: MTT cancer cell growth inhibition; format: cell-based; settings: Homo sapiens, 72 h
Excerpt: as §3, §4, §5, §6, §7, §8, §9, §10, §11

Incap = experiment: MTT cancer cell growth inhibition; format: cell-based; settings: 72 h

HDAC1, sequence (Q13547 whole entry, species assumed): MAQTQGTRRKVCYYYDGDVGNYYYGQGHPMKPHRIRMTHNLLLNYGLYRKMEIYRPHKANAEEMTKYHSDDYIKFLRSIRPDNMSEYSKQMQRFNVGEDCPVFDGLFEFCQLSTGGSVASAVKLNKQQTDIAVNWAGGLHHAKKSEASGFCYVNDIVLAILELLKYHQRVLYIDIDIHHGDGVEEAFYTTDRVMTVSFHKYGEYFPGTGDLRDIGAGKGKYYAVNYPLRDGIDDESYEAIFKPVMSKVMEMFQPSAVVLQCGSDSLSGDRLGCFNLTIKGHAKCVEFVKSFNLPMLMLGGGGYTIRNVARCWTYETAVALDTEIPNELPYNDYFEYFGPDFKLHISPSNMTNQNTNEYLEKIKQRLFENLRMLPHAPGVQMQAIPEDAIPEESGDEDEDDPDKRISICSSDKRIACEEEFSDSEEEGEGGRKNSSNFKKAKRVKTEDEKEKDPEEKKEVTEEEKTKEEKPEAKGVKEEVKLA

pIC50 (HDAC1) | IC50 HDAC7 (HDAC7) | GI50 [1] [nM] | GI50 [2] [nM] | GI50 [3] [nM] | GI50 [4] [nM] | GI50 [5] [nM] | GI50 [6] [nM] | GI50 [7] [nM] | GI50 [8] [nM] | GI50 (PANC-1) [nM] | GI50 (Incap) [nM] | Compound
> 7.00 | no activity | 4020 | 1230 | 5010 | 30 | 2120 | 25100 | 2000 | 150 | 1030 | 1230 | C/C=C1\NC(=O)c2csc(n2)[C@H](C)NC(=O)C[C@@H](/C=C/CCSC(=O)CCCCCCC)OC(=O)[C@H](C(C)C)NC1=O [Compound 4-2]
> 5.00 | no activity | 140 | 1060 | 650 | 3030 | 7120 | 4660 | 30 | 2550 | 10 | 1020 | C/C=C1\NC(=O)c2csc(n2)[C@H](Cc2ccccc2)NC(=O)C[C@@H](/C=C/CCSC(=O)CCCCCCC)OC(=O)[C@H](C(C)C)NC1=O [Compound 4-3]
> 5.00 | no activity | 695 | 540 | 2660 | 1650 | 26500 | 365 | 268 | 4120 | 1640 | 450 | C/C=C1\NC(=O)c2csc(n2)CNC(=O)C[C@@H](/C=C/CCSC(=O)CCO)OC(=O)[C@H](C(C)C)NC1=O [Compound 6-5]
> 7.00 | no activity | 8 | 400 | 7 | 50 | 100 | 90 | 9 | 90 | 300 | 50 | C/C=C1\NC(=O)c2csc(n2)CNC(=O)C[C@@H](/C=C/CCSC(=O)CCCCCCC)OC(=O)CNC1=O [Compound 1-1]

Compound | pIC50 (HDAC1) | IC50 HDAC7 (HDAC7) | GI50 [1] [nM] | GI50 [2] [nM] | GI50 [3] [nM] | GI50 [4] [nM] | GI50 [5] [nM] | GI50 [6] [nM] | GI50 [7] [nM] | GI50 [8] [nM] | GI50 (PANC-1) [nM] | GI50 (Incap) [nM]
C/C=C1\NC(=O)c2csc(n2)CNC(=O)C[C@@H](/C=C/CCSC(=O)CCCCCCC)OC(=O)[C@H](C(C)C)N(C)C1=O [Compound 5-2] | > 5.00 | no activity | 6410 | 350 | 20 | 1050 | 1300 | 240 | 10300 | 690 | 21400 | 5030
